Reference: patent US6914045B2, “Glycopeptide antibiotics” (Wyeth Holdings Corporation, priority 2001, dated 2005)
Values after ≈ are worked out from the molar mass of the structure shown.

What was measured:
Assay in all cases: in vitro antibacterial evaluation, MIC by broth dilution
Assay type in all cases: cell-based
[1] = tested on: Escherichia coli; conditions: 18 hours at 35° C.
Outline: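 Broth dilution in Muller-Hinton II medium per NCCLS standard M7-A2, with an inoculum of 5×10^5 CFU/mL and antibiotic tested over 64-0.06 μg/mL. MIC was taken as the lowest concentration inhibiting visible growth.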

[2] = tested on: Staphylococcus sp.; conditions: broth dilution, 18 hours at 35° C.; for MIC Staphylococcus aureus (ATCC 29213): strain ATCC 29213; for MIC Staphylococcus aureus (GC 1131): strain GC 1131; for MIC Staphylococcus aureus (GC 3051): strain GC 3051; for MIC Staphylococcus aureus (GC 3053): strain GC 3053; for MIC Staphylococcus aureus (GC 4541): strain GC 4541; for MIC Staphylococcus aureus (GC 4542): strain GC 4542; for MIC Staphylococcus aureus-SMITH (GC 4543): strain GC 4543; for MIC Staphylococcus aureus (GC 4544): strain GC 4544; for MIC Staphylococcus aureus (GC 4545): strain GC 4545; for MIC Staphylococcus haemolyticus (GC 4546): strain GC 4546; for MIC Coagulase Negative Staphylococcus (GC 4547): strain GC 4547; for MIC Coagulase Negative Staphylococcus (GC 4548): strain GC 4548; for MIC Coagulase Negative Staphylococcus (GC 4549): strain GC 4549; for MIC Coagulase Negative Staphylococcus (GC 4551): strain GC 4551; for MIC Coagulase Negative Staphylococcus (GC 6257): strain GC 6257
Procedure: (§1) Methods for in vitro Antibacterial Evaluation (Table 1)
(§2) The minimum inhibitory concentration (MIC), the lowest concentration of the antibiotic which inhibits growth of the test organism, is determined by the broth dilution method using Muller-Hinton II […] (Baltimore Biological Laboratories) following the recommendations of the National Committee for Clinical Laboratory Standards [Methods for dilution antimicrobial susceptibility tests for bacteria that grow aerobically, approved standard M7-A2, National Committee for Clinical Laboratory Standards, Villanova, Pa.].
(§3) An inoculum level of 5×10^5 CFU/mL, and a range of antibiotic concentrations (64-0.06 μg/mL) is used. […] The test organisms include a spectrum of Gram-positive bacteria comprised of Staphylococcus sp., Streptococcus sp. and Enterococcus sp. These organisms include recent clinical isolates that are resistant to methicillin, penicillin and/or vancomycin.

[3] = tested on: Streptococcus sp.
Procedure: as §1, §2, §3

[4] = tested on: Enterococcus sp.
Procedure: as §1, §2, §3

[5] = broth dilution, 18 hours at 35° C.

## CC(c1ccccc1)C1NC(=O)CNC(=O)C(CO)NC(=O)C(CC2CN(Cc3ccccc3)C(=N)N2C2OC(CO)C(O)C(O)C2O)NC(=O)C(CC2CNC(=N)N2)NC(=O)C(Cc2ccc(OC3OC(CO)C(OC4OC5COC6(OC5C(O)C4O)C4CC5CC(C4)CC6C5)C(O)C3O)cc2)NC1=O (stereo not drawn) [Example 80, Cyclo[3-(2-iminoimidazolidin-4-yl)alanyl-3-(1-benzyl-3-hexopyranosyl-2-iminoimidazolidin-4-yl)alanylserylglycyl-β-methylphenylalanyl-O-[4-O-[4,6-O-(2-adamantylidene)hexopyranosyl]hexopyranosyl]tyrosyl]]
[1]
  MIC Escherichia coli (ATCC 25922): >64 µg/mL
  MIC Escherichia coli (GC 4559): >64 µg/mL
  MIC Escherichia coli (GC 4560): 8 µg/mL (≈ 5.38 µM)
[2]
  MIC Staphylococcus aureus (ATCC 29213): 32 µg/mL (≈ 21.5 µM)
  MIC Staphylococcus aureus (GC 1131): 32 µg/mL (≈ 21.5 µM)
  MIC Staphylococcus aureus (GC 3051): 32 µg/mL (≈ 21.5 µM)
  MIC Staphylococcus aureus (GC 3053): 64 µg/mL (≈ 43.1 µM)
  MIC Staphylococcus aureus (GC 4541): 32 µg/mL (≈ 21.5 µM)
  MIC Staphylococcus aureus (GC 4542): 32 µg/mL (≈ 21.5 µM)
  MIC Staphylococcus aureus-SMITH (GC 4543): 32 µg/mL (≈ 21.5 µM)
  MIC Staphylococcus aureus (GC 4544): 32 µg/mL (≈ 21.5 µM)
  MIC Staphylococcus aureus (GC 4545): 32 µg/mL (≈ 21.5 µM)
  MIC Staphylococcus haemolyticus (GC 4546): 32 µg/mL (≈ 21.5 µM)
  MIC Coagulase Negative Staphylococcus (GC 4547): 32 µg/mL (≈ 21.5 µM)
  MIC Coagulase Negative Staphylococcus (GC 4548): 32 µg/mL (≈ 21.5 µM)
  MIC Coagulase Negative Staphylococcus (GC 4549): 32 µg/mL (≈ 21.5 µM)
  MIC Coagulase Negative Staphylococcus (GC 4551): 32 µg/mL (≈ 21.5 µM)
  MIC Coagulase Negative Staphylococcus (GC 6257): 8 µg/mL (≈ 5.38 µM)
[3]; [5]
  MIC Streptococcus agalactiae (GC 4564): 8 µg/mL (≈ 5.38 µM)
  MIC Streptococcus pneumoniae (ATCC 6301): 8 µg/mL (≈ 5.38 µM)
  MIC Streptococcus pneumoniae (GC 1894): 4 µg/mL (≈ 2.69 µM)
  MIC Streptococcus pneumoniae (GC 4565): 16 µg/mL (≈ 10.8 µM)
  MIC Streptococcus pyogenes (GC 4563): 8 µg/mL (≈ 5.38 µM)
[3]; broth dilution, 18 hours at 35° C.; strain ATCC 6301
  MIC Streptococcus pneumoniae (ATCC 6301): 8 µg/mL (≈ 5.38 µM)
[3]; broth dilution, 18 hours at 35° C.; strain GC 1894
  MIC Streptococcus pneumoniae (GC 1894): 4 µg/mL (≈ 2.69 µM)
[3]; broth dilution, 18 hours at 35° C.; strain GC 4563
  MIC Streptococcus pyogenes (GC 4563): 8 µg/mL (≈ 5.38 µM)
[3]; broth dilution, 18 hours at 35° C.; strain GC 4564
  MIC Streptococcus agalactiae (GC 4564): 8 µg/mL (≈ 5.38 µM)
[3]; broth dilution, 18 hours at 35° C.; strain GC 4565
  MIC Streptococcus pneumoniae (GC 4565): 16 µg/mL (≈ 10.8 µM)
[4]; Enterococcus avium (GC 4558); broth dilution, 18 hours at 35° C.
  MIC Enterococcus avium (GC 4558): 32 µg/mL (≈ 21.5 µM)
[4]; Enterococcus faecalis (ATCC 29212); broth dilution, 18 hours at 35° C.
  MIC Enterococcus faecalis (ATCC 29212): 64 µg/mL (≈ 43.1 µM)
[4]; Enterococcus faecalis (GC 4552); broth dilution, 18 hours at 35° C.
  MIC Enterococcus faecalis (GC 4552): 64 µg/mL (≈ 43.1 µM)
[4]; Enterococcus faecalis (GC 4553); broth dilution, 18 hours at 35° C.
  MIC Enterococcus faecalis (GC 4553): 32 µg/mL (≈ 21.5 µM)
[4]; Enterococcus faecalis (GC 4554); broth dilution, 18 hours at 35° C.
  MIC Enterococcus faecalis (GC 4554): 64 µg/mL (≈ 43.1 µM)
[4]; Enterococcus faecalis (GC 6189); broth dilution, 18 hours at 35° C.
  MIC Enterococcus faecalis (GC 6189): 64 µg/mL (≈ 43.1 µM)
[4]; Enterococcus faecium (GC 2243); broth dilution, 18 hours at 35° C.
  MIC Enterococcus faecium (GC 2243): 32 µg/mL (≈ 21.5 µM)
[4]; Enterococcus faecium (GC 4556); broth dilution, 18 hours at 35° C.
  MIC Enterococcus faecium (GC 4556): 64 µg/mL (≈ 43.1 µM)
[4]; Enterococcus faecium (GC 4557); broth dilution, 18 hours at 35° C.
  MIC Enterococcus faecium (GC 4557): 16 µg/mL (≈ 10.8 µM)
[4]; [5]
  MIC Enterococcus avium (GC 4558): 32 µg/mL (≈ 21.5 µM)
  MIC Enterococcus faecalis (ATCC 29212): 64 µg/mL (≈ 43.1 µM)
  MIC Enterococcus faecalis (GC 2242): 32 µg/mL (≈ 21.5 µM)
  MIC Enterococcus faecalis (GC 2691): 64 µg/mL (≈ 43.1 µM)
  MIC Enterococcus faecalis (GC 3059): 64 µg/mL (≈ 43.1 µM)
  MIC Enterococcus faecalis (GC 4552): 64 µg/mL (≈ 43.1 µM)
  MIC Enterococcus faecalis (GC 4553): 32 µg/mL (≈ 21.5 µM)
  MIC Enterococcus faecalis (GC 4554): 64 µg/mL (≈ 43.1 µM)
  MIC Enterococcus faecalis (GC 6189): 64 µg/mL (≈ 43.1 µM)
  MIC Enterococcus faecium (GC 2243): 32 µg/mL (≈ 21.5 µM)
  MIC Enterococcus faecium (GC 4556): 64 µg/mL (≈ 43.1 µM)
  MIC Enterococcus faecium (GC 4557): 16 µg/mL (≈ 10.8 µM)
[4]; broth dilution, 18 hours at 35° C.; strain GC 2242
  MIC Enterococcus faecalis (GC 2242): 32 µg/mL (≈ 21.5 µM)
[4]; broth dilution, 18 hours at 35° C.; strain GC 2691
  MIC Enterococcus faecalis (GC 2691): 64 µg/mL (≈ 43.1 µM)
[4]; broth dilution, 18 hours at 35° C.; strain GC 3059
  MIC Enterococcus faecalis (GC 3059): 64 µg/mL (≈ 43.1 µM)

## CC(c1ccccc1)C1NC(=O)CNC(=O)C(CO)NC(=O)C(CC2CNC(=N)N2C2OC(CO)C(O)C(O)C2O)NC(=O)C(CC2CNC(=N)N2)NC(=O)C(Cc2ccc3oc(-c4ccc5c(c4)Cc4ccccc4-5)nc3c2)NC1=O (stereo not drawn) [Example 42, Cyclo[3-[2-(9H-fluoren-2-yl)-1,3-benzoxazol-5-yl]alanyl-3-(2-iminoimidazolidin-4-yl)alanyl-3-(3-hexopyranosyl-2-iminoimidazolidin-4-yl)alanylserylglycyl-β-methylphenylalanyl]]
[1]; strain ATCC 25922, broth dilution
  MIC Escherichia coli (ATCC 25922): 32 µg/mL (≈ 28.4 µM)
[1]; strain GC 4559, broth dilution
  MIC Escherichia coli (GC 4559): 32 µg/mL (≈ 28.4 µM)
[1]; strain GC 4560, broth dilution
  MIC Escherichia coli (GC 4560): 1 µg/mL (≈ 0.886 µM)
[2]
  MIC Staphylococcus aureus (ATCC 29213): 4 µg/mL (≈ 3.55 µM)
  MIC Staphylococcus aureus (GC 1131): 2 µg/mL (≈ 1.77 µM)
  MIC Staphylococcus aureus (GC 3051): 8 µg/mL (≈ 7.09 µM)
  MIC Staphylococcus aureus (GC 3053): 4 µg/mL (≈ 3.55 µM)
  MIC Staphylococcus aureus (GC 4541): 2 µg/mL (≈ 1.77 µM)
  MIC Staphylococcus aureus (GC 4542): 2 µg/mL (≈ 1.77 µM)
  MIC Staphylococcus aureus-SMITH (GC 4543): 2 µg/mL (≈ 1.77 µM)
  MIC Staphylococcus aureus (GC 4544): 2 µg/mL (≈ 1.77 µM)
  MIC Staphylococcus aureus (GC 4545): 2 µg/mL (≈ 1.77 µM)
  MIC Staphylococcus haemolyticus (GC 4546): 2 µg/mL (≈ 1.77 µM)
  MIC Coagulase Negative Staphylococcus (GC 4547): 2 µg/mL (≈ 1.77 µM)
  MIC Coagulase Negative Staphylococcus (GC 4548): 1 µg/mL (≈ 0.886 µM)
  MIC Coagulase Negative Staphylococcus (GC 4549): 1 µg/mL (≈ 0.886 µM)
  MIC Coagulase Negative Staphylococcus (GC 4551): 4 µg/mL (≈ 3.55 µM)
  MIC Coagulase Negative Staphylococcus (GC 6257): 1 µg/mL (≈ 0.886 µM)
[3]; strain ATCC 6301; broth dilution, 18 hours at 35° C.
  MIC Streptococcus pneumoniae (ATCC 6301): 8 µg/mL (≈ 7.09 µM)
[3]; strain GC 1894; broth dilution, 18 hours at 35° C.
  MIC Streptococcus pneumoniae (GC 1894): 16 µg/mL (≈ 14.2 µM)
[3]; strain GC 4563; broth dilution, 18 hours at 35° C.
  MIC Streptococcus pyogenes (GC 4563): 4 µg/mL (≈ 3.55 µM)
[3]; strain GC 4564; broth dilution, 18 hours at 35° C.
  MIC Streptococcus agalactiae (GC 4564): 8 µg/mL (≈ 7.09 µM)
[3]; strain GC 4565; broth dilution, 18 hours at 35° C.
  MIC Streptococcus pneumoniae (GC 4565): 16 µg/mL (≈ 14.2 µM)
[4]; strain ATCC 29212; broth dilution, 18 hours at 35° C.
  MIC Enterococcus faecalis (ATCC 29212): 8 µg/mL (≈ 7.09 µM)
[4]; strain GC 2242; broth dilution, 18 hours at 35° C.
  MIC Enterococcus faecalis (GC 2242): 8 µg/mL (≈ 7.09 µM)
[4]; strain GC 2243; broth dilution, 18 hours at 35° C.
  MIC Enterococcus faecium (GC 2243): 4 µg/mL (≈ 3.55 µM)
[4]; strain GC 2691; broth dilution, 18 hours at 35° C.
  MIC Enterococcus faecalis (GC 2691): 8 µg/mL (≈ 7.09 µM)
[4]; strain GC 3059; broth dilution, 18 hours at 35° C.
  MIC Enterococcus faecalis (GC 3059): 16 µg/mL (≈ 14.2 µM)
[4]; strain GC 4552; broth dilution, 18 hours at 35° C.
  MIC Enterococcus faecalis (GC 4552): 8 µg/mL (≈ 7.09 µM)
[4]; strain GC 4553; broth dilution, 18 hours at 35° C.
  MIC Enterococcus faecalis (GC 4553): 8 µg/mL (≈ 7.09 µM)
[4]; strain GC 4554; broth dilution, 18 hours at 35° C.
  MIC Enterococcus faecalis (GC 4554): 8 µg/mL (≈ 7.09 µM)
[4]; strain GC 4556; broth dilution, 18 hours at 35° C.
  MIC Enterococcus faecium (GC 4556): 16 µg/mL (≈ 14.2 µM)
[4]; strain GC 4557; broth dilution, 18 hours at 35° C.
  MIC Enterococcus faecium (GC 4557): 2 µg/mL (≈ 1.77 µM)
[4]; strain GC 4558; broth dilution, 18 hours at 35° C.
  MIC Enterococcus avium (GC 4558): 4 µg/mL (≈ 3.55 µM)
[4]; strain GC 6189; broth dilution, 18 hours at 35° C.
  MIC Enterococcus faecalis (GC 6189): 8 µg/mL (≈ 7.09 µM)
